Laboratory results published in ChEMBL document CHEMBL4825697, “Optimization and SAR research at the piperazine and phenyl rings of JNJ4796 as new anti-influenza A virus agents, part 1” (Eur J Med Chem, 2021).

Tests used:
[1] = Selectivity index, ratio of CC50 for cytotoxicity against dog MDCK cells to IC50 for antiviral activity against Oseltamivir resistant Influenza A virus (A/Tianjin-Jinnan/15/2009(H1N1)) infected in dog MDCK cells; assay type: toxicity, cell-based; settings: read-out: Selectivity Index
Influenza A virus = test: Antiviral activity against Oseltamivir resistant Influenza A virus (A/Tianjin-Jinnan/15/2009(H1N1) infected in dog MDCK cells assessed as inhibition of surface glycoprotein hemagglutinin; assay type: functional, organism-based

SMILES	selectivity ratio [1]	IC50 (Influenza A virus)
CC(=O)Nc1ccc2oc(-c3ccnc(C(=O)N4CCN([C@H](c5ccc(F)cc5)c5nnn(C)n5)CC4)c3)nc2c1	> 3330	0.06 µM
NC(=O)c1ncn([C@@H]2O[C@H](CO)[C@@H](O)[C@H]2O)n1 [RIBAVIRIN]	> 46	4.28 µM
CC(=O)Nc1ccc2oc(-c3ccnc(C(=O)N4CCN([C@@H](c5ccc(F)cc5)c5nnn(C)n5)CC4)c3)nc2c1	> 30	6.65 µM
CC(=O)Nc1ccc2oc(-c3ccnc(C(=O)N4CCN([C@@H](c5ccccc5)c5nnn(C)n5)CC4)c3)nc2c1	> 23	8.5 µM
CCOC(=O)C1=C[C@@H](OC(CC)CC)[C@H](NC(C)=O)[C@@H](N)C1 [OSELTAMIVIR]	> 1	180 µM
CC(=O)Nc1ccc2oc(-c3ccnc(C(=O)N4CCN([C@H](c5ccccc5)c5nnn(C)n5)CC4)c3)nc2c1	2870	0.05 µM
